Laboratory results: the NIST ThermoML archive (doi:10.1016/j.jct.2014.07.006)
“And” between values parts separate entries of the source, which are not always exact repeats. Equal entries are not always repeated.

Key:
[1] = for vapor or sublimation pressure: Liquid, Rate of evaporation; for Normal melting temperature: Crystal, DTA
[2] = Molar enthalpy of transition or fusion; settings: Crystal; DSC
[3] = molar heat capacity at constant pressure; settings: 298.15 K; 101.33 kPa; Crystal; Small sample (50 mg) DSC

NC(=O)c1ccccc1[N+](=O)[O-] [2-nitrobenzamide]
[1]
Settings	vapor or sublimation pressure
485.02 K	0.5592 kPa
485.04 K	0.5538 kPa
485.08 K	0.5802 kPa
490.02 K	0.6682 kPa
490.06 K	0.6975 kPa
490.07 K	0.6914 kPa
495 K	0.8483 kPa
495.01 K	0.8342 kPa
495.05 K	0.8126 kPa
500.01 K	1.016 kPa
500.05 K	0.9934 kPa
500.08 K	1.036 kPa
505 K	1.234 kPa
505.03 K	1.212 kPa
505.05 K	1.264 kPa
510.02 K	1.487 kPa
510.04 K	1.531 kPa
510.07 K	1.503 kPa
515.02 K	1.877 kPa
515.05 K	1.829 kPa
515.08 K	1.822 kPa
520.02 K	2.233 kPa
520.05 K	2.227 kPa
520.07 K	2.203 kPa
525.01 K	2.884 kPa and 2.697 kPa
525.06 K	2.718 kPa
530.02 K	3.274 kPa
530.03 K	3.315 kPa
530.07 K	3.29 kPa
535.02 K	3.942 kPa
535.03 K	3.951 kPa
535.06 K	3.957 kPa

Settings	Molar enthalpy of transition or fusion [kcal/mol]	Normal melting temperature [°C]	molar heat capacity at constant pressure [J/K/mol]
[1]	–	173.80	–
[2]	6.63	–	–
[3]	–	–	220.96

NC(=O)c1cccc([N+](=O)[O-])c1 [3-nitrobenzamide]
[1]
Settings	vapor or sublimation pressure [kPa]
485 K	0.7222
485.02 K	0.7094
485.06 K	0.6868
490.01 K	0.8798
490.02 K	0.868
490.06 K	0.84
495.01 K	1.068
495.02 K	1.057
495.05 K	1.021
500 K	1.286
500.01 K	1.284
500.04 K	1.246
505.03 K	1.495
505.07 K	1.556
505.08 K	1.557
510 K	1.794
510.04 K	1.867
510.06 K	1.872
515.02 K	2.228
515.03 K	2.226
515.06 K	2.146
520.02 K	2.545
520.06 K	2.654
520.07 K	2.633
525.02 K	3.119
525.03 K	3.091
525.06 K	3.009
530 K	3.525
530.04 K	3.638
530.06 K	3.596
535.01 K	4.145
535.03 K	4.119
535.06 K	4.215

Settings	Molar enthalpy of transition or fusion [kcal/mol]	Normal melting temperature [°C]	molar heat capacity at constant pressure [J/K/mol]
[1]	–	141.51	–
[2]	5.87	–	–
[3]	–	–	237.57

NC(=O)c1ccc([N+](=O)[O-])cc1 [p-nitrobenzamide]
[1]
Settings	vapor or sublimation pressure
485.02 K	0.6396 kPa and 0.6809 kPa
485.04 K	0.5788 kPa
485.1 K	0.6701 kPa
490.01 K	0.8437 kPa
490.03 K	0.8038 kPa
490.07 K	0.7398 kPa
490.08 K	0.7145 kPa
495.01 K	1.021 kPa and 0.9548 kPa
495.05 K	0.9568 kPa
495.06 K	0.871 kPa
500.01 K	1.06 kPa
500.03 K	1.229 kPa
500.04 K	1.142 kPa
500.06 K	1.154 kPa
505 K	1.286 kPa
505.03 K	1.474 kPa
505.05 K	1.352 kPa
505.06 K	1.416 kPa
510 K	1.671 kPa
510.02 K	1.683 kPa
510.04 K	1.565 kPa
510.06 K	1.777 kPa
515.01 K	2.113 kPa and 2.01 kPa
515.04 K	2.03 kPa
515.06 K	1.895 kPa
520.02 K	2.452 kPa
520.04 K	2.289 kPa
520.06 K	2.527 kPa
520.08 K	2.386 kPa
525.02 K	3.001 kPa
525.03 K	2.837 kPa
525.05 K	2.926 kPa
525.08 K	2.758 kPa
530.01 K	3.298 kPa
530.03 K	3.568 kPa
530.05 K	3.382 kPa
530.06 K	3.455 kPa
535.02 K	3.943 kPa
535.04 K	4.206 kPa
535.06 K	4.019 kPa
535.07 K	4.152 kPa

Settings	Molar enthalpy of transition or fusion [kcal/mol]	Normal melting temperature [°C]	molar heat capacity at constant pressure [J/K/mol]
[1]	–	200.33	–
[2]	7.19	–	–
[3]	–	–	212.65

c1ccc2c(c1)ccc1ccccc12 [phenanthrene]
[1]
Settings	vapor or sublimation pressure
400 K	0.1505 kPa [middle of 4 runs]
405 K	0.18 kPa [middle of 4 runs]
410 K	0.2218 kPa [middle of 4 runs]
415 K	0.2759 kPa [middle of 4 runs]
420 K	0.3417 kPa [middle of 4 runs]
425 K	0.427 kPa [middle of 4 runs]
430 K	0.5304 kPa [middle of 4 runs]
435 K	0.6576 kPa [middle of 4 runs]
440 K	0.8141 kPa [middle of 4 runs]
445 K	1.004 kPa [middle of 4 runs]
450 K	1.235 kPa [middle of 4 runs]
455 K	1.516 kPa [middle of 4 runs]
460 K	1.844 kPa [middle of 4 runs]
465 K	2.233 kPa [middle of 4 runs]
470 K	2.697 kPa [middle of 4 runs]
475 K	3.245 kPa [middle of 4 runs]
480 K	3.773 kPa and 3.874 kPa and 3.819 kPa
